What was measured:
[1] = tested on: RC0.1; assay: MTT assay
[2] = tested on: HT29; assay: NCI60 assay; assay type: cell-based; conditions: Homo sapiens, HT-29; Colon cancer, HT29, 48 h
Description: (§1) CYB-L10 was tested using the protocols by the NCI, which has been described previously. […] The overall antiproliferative potential is quantified as a mean-graph midpoint (MGM). […] It was selected and submitted to National Cancer Institute (NCI, USA) for a developmental therapeutics assay against the 60 clinical tumor cell lines representing nine tissue types (NCI60)[23–25]. The tumor cells were incubated with CYB-L10 for 48 h and stained with sulphorhodamine B dye. Cell growth inhibition (GI50) was calculated relative to the control without compound.

[3] = tested on: MCF7; assay: NCI60 assay; assay type: cell-based; conditions: Homo sapiens, Breast cancer, MCF7, 48 h
Description: as §1

[4] = tested on: TK-10; assay: NCI60 assay; assay type: cell-based; conditions: Homo sapiens; Renal cancer, TK-10, 48 h
Description: as §1

[5] = tested on: MDA-MB-435; assay: NCI60 assay; assay type: cell-based; conditions: Homo sapiens; Melanoma, MDA-MB-435, 48 h
Description: as §1

[6] = tested on: SR; assay: NCI60 assay; assay type: cell-based; conditions: Homo sapiens, Leukemia, 48 h
Description: as §1

[7] = tested on: DU-145; assay: NCI60 assay; assay type: cell-based; conditions: Homo sapiens, Prostate cancer, DU-145, 48 h
Description: as §1

[8] = tested on: LOX IMVI; assay: NCI60 assay; assay type: cell-based; conditions: Homo sapiens, Melanoma, 48 h
Description: as §1

[9] = tested on: BT-549; assay: NCI60 assay; assay type: cell-based; conditions: Homo sapiens; Breast cancer, BT-549, 48 h
Description: as §1

[10] = tested on: T-47D; assay: NCI60 assay; assay type: cell-based; conditions: Homo sapiens, T47D, Breast cancer, 48 h
Description: as §1

[11] = tested on: MDA-MB-231/ATCC; assay: NCI60 assay; assay type: cell-based; conditions: Homo sapiens, Breast cancer, 48 h
Description: as §1

[12] = tested on: PC-3; assay: NCI60 assay; assay type: cell-based; conditions: Homo sapiens; Prostate cancer, PC-3, 48 h
Description: as §1

[13] = tested on: UACC-62; assay: NCI60 assay; assay type: cell-based; conditions: Homo sapiens; Melanoma, UACC-62, 48 h
Description: as §1

[14] = tested on: SF-268; assay: NCI60 assay; assay type: cell-based; conditions: Homo sapiens; CNS cancer, SF-268, 48 h
Description: as §1

[15] = tested on: NCI-H460; assay: NCI60 assay; assay type: cell-based; conditions: Homo sapiens; Non-small cell lung cancer, NCI-H460, 48 h
Description: as §1

[16] = tested on: A498; assay: NCI60 assay; assay type: cell-based; conditions: Homo sapiens; Renal cancer, A498, 48 h
Description: as §1

[17] = tested on: HOP-62; assay: NCI60 assay; assay type: cell-based; conditions: Homo sapiens; Non-small cell lung cancer, HOP-62, 48 h
Description: as §1

[18] = tested on: SK-OV-3; assay: NCI60 assay; assay type: cell-based; conditions: Homo sapiens; Ovarian cancer, SK-OV-3, 48 h
Description: as §1

[19] = tested on: SNB-75; assay: NCI60 assay; assay type: cell-based; conditions: Homo sapiens; CNS cancer, SNB-75, 48 h
Description: as §1

[20] = tested on: HCT-15; assay: NCI60 assay; assay type: cell-based; conditions: Homo sapiens; Colon cancer, HCT-15, 48 h
Description: as §1

[21] = tested on: CCRF-CEM; assay: NCI60 assay; assay type: cell-based; conditions: Homo sapiens, Leukemia, 48 h
Description: as §1

[22] = tested on: SW-620; assay: NCI60 assay; assay type: cell-based; conditions: Homo sapiens; Colon cancer, SW-620, 48 h
Description: as §1

[23] = tested on: NCI-H226; assay: NCI60 assay; assay type: cell-based; conditions: Homo sapiens; Non-small cell lung cancer, NCI-H226, 48 h
Description: as §1

[24] = tested on: OVCAR-8; assay: NCI60 assay; assay type: cell-based; conditions: Homo sapiens; Ovarian cancer, OVCAR-8, 48 h
Description: as §1

[25] = tested on: NCI-H522; assay: NCI60 assay; assay type: cell-based; conditions: Homo sapiens; Non-small cell lung cancer, NCI-H522, 48 h
Description: as §1

[26] = tested on: NCI-H322M; assay: NCI60 assay; assay type: cell-based; conditions: Homo sapiens, Non-small cell lung cancer, 48 h
Description: as §1

[27] = tested on: M14; assay: NCI60 assay; assay type: cell-based; conditions: Homo sapiens; Melanoma, M14, 48 h
Description: as §1

[28] = tested on: OVCAR-4; assay: NCI60 assay; assay type: cell-based; conditions: Homo sapiens; Ovarian cancer, OVCAR-4, 48 h
Description: as §1

[29] = tested on: U251; assay: NCI60 assay; assay type: cell-based; conditions: Homo sapiens, U-251; CNS cancer, U251, 48 h
Description: as §1

[30] = tested on: SN 12C; assay: NCI60 assay; assay type: cell-based; conditions: Homo sapiens, SN12C, Renal cancer, 48 h
Description: as §1

[31] = tested on: OVCAR-3; assay: NCI60 assay; assay type: cell-based; conditions: Homo sapiens; Ovarian cancer, OVCAR-3, 48 h
Description: as §1

[32] = tested on: COLO 205; assay: NCI60 assay; assay type: cell-based; conditions: Homo sapiens; Colon cancer, COLO 205, 48 h
Description: as §1

[33] = tested on: MOLT-4; assay: NCI60 assay; assay type: cell-based; conditions: Homo sapiens; Leukemia, MOLT-4, 48 h
Description: as §1

[34] = tested on: HCC-2998; assay: NCI60 assay; assay type: cell-based; conditions: Homo sapiens; Colon cancer, HCC-2998, 48 h
Description: as §1

[35] = tested on: SNB-19; assay: NCI60 assay; assay type: cell-based; conditions: Homo sapiens; CNS cancer, SNB-19, 48 h
Description: as §1

[36] = tested on: CAKI-1; assay: NCI60 assay; assay type: cell-based; conditions: Homo sapiens; Renal cancer, CAKI-1, 48 h
Description: as §1

[37] = tested on: SF-295; assay: NCI60 assay; assay type: cell-based; conditions: Homo sapiens; CNS cancer, SF-295, 48 h
Description: as §1

[38] = tested on: 60 human clinical cancer cell lines (NCI60); assay: NCI60 assay, mean-graph midpoint; assay type: cell-based; conditions: NCI60, 48 h
Description: as §1

[39] = tested on: HepG2; assay: MTT assay; assay type: cell-based; conditions: Homo sapiens; Parental cell line HepG2, MTT, 72 h

## O=C1c2cccnc2C(=O)c2c1c(C(=O)OCCN1CCOCC1)c1ccccn21 [CYB-L10]
[1]; GI50 RC0.1 / GI50 DU-145
  Resistance ratio: 40.6
[1]; Homo sapiens, 72 h, read-out: GI50 ± SD
  GI50: 650 ± 10 nM
[2]
  GI50: 580 nM
[3]
  GI50: < 10 nM
[4]
  GI50: 361 nM
[5]
  GI50: 64.6 nM
[6]
  GI50: < 10 nM
[7]
  GI50: 30.5 nM
[8]
  GI50: < 10 nM
[9]
  GI50: 55.8 nM
[10]
  GI50: 961 nM
[11]
  GI50: 1620 nM
[12]
  GI50: 190 nM
[13]
  GI50: < 10 nM
[14]
  GI50: 18.5 nM
[15]
  GI50: < 10 nM
[16]
  GI50: 34.3 nM
[17]
  GI50: < 10 nM
[18]
  GI50: < 10 nM
[19]
  GI50: < 10 nM
[20]
  GI50: 39.5 nM
[21]
  GI50: 379 nM
[22]
  GI50: < 10 nM
[23]
  GI50: 28.9 nM
[24]
  GI50: 28.1 nM
[25]
  GI50: 11.9 nM
[26]
  GI50: 97.7 nM
[27]
  GI50: < 10 nM
[28]
  GI50: 1220 nM
[29]
  GI50: 10.9 nM
[30]
  GI50: < 10 nM
[31]
  GI50: 170 nM
[32]
  GI50: 137 nM
[33]
  GI50: 217 nM
[34]
  GI50: 252 nM
[35]
  GI50: < 10 nM
[36]
  GI50: 33.9 nM
[37]
  GI50: 25.7 nM
[38]
  MGM (mean graph midpoint for growth inhibition of all human cancer cell lines): 0.050 µM
[39]
  GI50: 65 ± 30 nM
